Measured values as given in patent US12643903B2, “Bifunctional compounds for degradation of EGFR and related methods of use” (BeiGene, Ltd., priority 2020, dated 2026).

Legend:
Type in all cases: cell-based
Details in all cases: 16 h treatment, EGFR degradation by HTRF
[1] = biological target: T1, EGFR (Homo sapiens, UniProt P00533, L858R/T790M); experiment: Cell Degradation 1: EGFR degradation in H1975 cells, HTRF assay
T1 construct: endogenous in cells; host or cells: H1975
How it was run: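 H1975 cells treated with compound for 16 h, lysed 1 h at room temperature. EGFR measured by HTRF after overnight antibody incubation (665/620 nm). DC50 from four-parameter logistic fit of percent inhibition against concentration.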

[2] = biological target: T2, EGFR LTC (Homo sapiens, UniProt P00533, C797S/L858R/T790M); experiment: Cell Degradation 3: EGFR degradation in BaF3 cells (LTC), HTRF assay
T2 construct: expressed in transfected cells; host or cells: BaF3
How it was run: (§1)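 BaF3 cells expressing EGFR (LTC triple mutant C797S/L858R/T790M or DTC) exposed to compounds for 16 h, 8 doses from 4-fold dilution, 0.2% DMSO. Residual EGFR quantified by HTRF in lysates (triple mutant lysate diluted 1:1); DC50 from four-parameter logistic fit.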

[3] = biological target: T3, EGFR (Homo sapiens, UniProt P00533, DEL746-750); experiment: Cell Degradation 2: EGFR degradation in HCC827 cells, HTRF assay
T3 construct: endogenous in cells; host or cells: HCC827
How it was run: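 Compound-treated HCC827 cells were lysed after 16 h and EGFR measured by HTRF (337 nm excitation, 665/620 nm emission) after overnight antibody incubation at room temperature. DC50 came from a four-parameter fit of percent inhibition against compound concentration.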

[4] = system: EGFR DTC; experiment: Cell Degradation 3: EGFR degradation in BaF3 cells (DTC), HTRF assay
How it was run: as §1

T1 sequence (P00533 25-1210 T790M/L858R): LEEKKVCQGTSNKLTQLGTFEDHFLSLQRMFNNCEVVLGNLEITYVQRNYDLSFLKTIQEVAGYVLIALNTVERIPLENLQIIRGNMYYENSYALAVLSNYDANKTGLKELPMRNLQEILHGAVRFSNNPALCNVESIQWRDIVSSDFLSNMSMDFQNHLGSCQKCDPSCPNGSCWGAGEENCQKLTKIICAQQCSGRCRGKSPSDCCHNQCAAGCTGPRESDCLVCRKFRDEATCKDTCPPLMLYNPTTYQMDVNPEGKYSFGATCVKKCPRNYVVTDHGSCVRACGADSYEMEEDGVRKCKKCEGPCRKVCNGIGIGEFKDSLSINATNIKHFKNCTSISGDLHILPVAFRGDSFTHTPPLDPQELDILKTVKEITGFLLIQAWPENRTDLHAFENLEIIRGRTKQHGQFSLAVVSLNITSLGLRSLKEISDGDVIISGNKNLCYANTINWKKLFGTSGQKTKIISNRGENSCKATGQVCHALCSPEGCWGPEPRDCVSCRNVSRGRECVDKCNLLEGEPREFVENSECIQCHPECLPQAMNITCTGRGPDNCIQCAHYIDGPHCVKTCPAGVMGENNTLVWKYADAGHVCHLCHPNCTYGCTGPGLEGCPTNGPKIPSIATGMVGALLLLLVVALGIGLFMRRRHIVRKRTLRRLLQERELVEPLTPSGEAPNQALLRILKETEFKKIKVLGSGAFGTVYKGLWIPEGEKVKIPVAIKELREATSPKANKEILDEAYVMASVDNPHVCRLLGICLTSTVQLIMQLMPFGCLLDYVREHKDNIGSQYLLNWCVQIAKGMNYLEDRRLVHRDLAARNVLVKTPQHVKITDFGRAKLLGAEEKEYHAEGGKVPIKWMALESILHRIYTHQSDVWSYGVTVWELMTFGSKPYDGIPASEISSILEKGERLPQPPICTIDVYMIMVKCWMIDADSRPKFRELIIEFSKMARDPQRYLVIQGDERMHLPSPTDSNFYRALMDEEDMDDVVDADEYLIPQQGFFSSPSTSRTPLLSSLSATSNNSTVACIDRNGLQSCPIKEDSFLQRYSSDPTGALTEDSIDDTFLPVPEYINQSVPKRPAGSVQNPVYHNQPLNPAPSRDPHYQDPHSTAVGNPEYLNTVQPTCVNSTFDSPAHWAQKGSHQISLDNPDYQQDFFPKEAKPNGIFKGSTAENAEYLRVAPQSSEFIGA
T3 sequence (P00533 with tags, fused parts or gaps DEL746-750): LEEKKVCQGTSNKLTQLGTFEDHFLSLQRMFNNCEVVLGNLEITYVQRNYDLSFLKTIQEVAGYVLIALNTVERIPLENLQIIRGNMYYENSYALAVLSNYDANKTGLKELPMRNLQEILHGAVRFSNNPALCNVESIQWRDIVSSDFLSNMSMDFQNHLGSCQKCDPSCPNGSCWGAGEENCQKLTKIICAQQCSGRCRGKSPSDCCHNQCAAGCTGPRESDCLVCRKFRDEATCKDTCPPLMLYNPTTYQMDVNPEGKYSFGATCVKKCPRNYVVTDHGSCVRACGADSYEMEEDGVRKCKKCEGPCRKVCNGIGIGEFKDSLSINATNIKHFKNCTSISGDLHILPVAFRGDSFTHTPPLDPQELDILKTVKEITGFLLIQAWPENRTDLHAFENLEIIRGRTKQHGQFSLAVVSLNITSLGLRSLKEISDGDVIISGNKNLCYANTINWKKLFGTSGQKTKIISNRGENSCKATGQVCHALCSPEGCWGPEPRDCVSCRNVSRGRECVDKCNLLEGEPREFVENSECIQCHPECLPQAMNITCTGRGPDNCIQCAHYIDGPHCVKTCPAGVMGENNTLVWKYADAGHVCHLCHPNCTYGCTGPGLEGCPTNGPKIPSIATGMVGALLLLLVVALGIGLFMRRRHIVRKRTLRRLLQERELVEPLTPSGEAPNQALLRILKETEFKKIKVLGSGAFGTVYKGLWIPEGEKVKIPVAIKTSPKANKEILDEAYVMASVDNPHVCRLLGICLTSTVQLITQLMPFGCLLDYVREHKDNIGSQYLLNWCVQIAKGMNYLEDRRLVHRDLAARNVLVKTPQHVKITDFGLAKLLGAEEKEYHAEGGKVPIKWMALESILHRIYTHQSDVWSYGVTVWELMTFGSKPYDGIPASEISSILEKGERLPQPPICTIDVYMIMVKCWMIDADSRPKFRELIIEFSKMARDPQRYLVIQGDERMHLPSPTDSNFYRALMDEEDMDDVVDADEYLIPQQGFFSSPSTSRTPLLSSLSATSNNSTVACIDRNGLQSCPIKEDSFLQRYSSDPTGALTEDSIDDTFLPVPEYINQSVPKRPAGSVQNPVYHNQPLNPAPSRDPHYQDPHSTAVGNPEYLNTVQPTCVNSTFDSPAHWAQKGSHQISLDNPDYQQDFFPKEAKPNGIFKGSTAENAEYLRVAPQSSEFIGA
T3 sequence (Q96SW2 whole entry partner): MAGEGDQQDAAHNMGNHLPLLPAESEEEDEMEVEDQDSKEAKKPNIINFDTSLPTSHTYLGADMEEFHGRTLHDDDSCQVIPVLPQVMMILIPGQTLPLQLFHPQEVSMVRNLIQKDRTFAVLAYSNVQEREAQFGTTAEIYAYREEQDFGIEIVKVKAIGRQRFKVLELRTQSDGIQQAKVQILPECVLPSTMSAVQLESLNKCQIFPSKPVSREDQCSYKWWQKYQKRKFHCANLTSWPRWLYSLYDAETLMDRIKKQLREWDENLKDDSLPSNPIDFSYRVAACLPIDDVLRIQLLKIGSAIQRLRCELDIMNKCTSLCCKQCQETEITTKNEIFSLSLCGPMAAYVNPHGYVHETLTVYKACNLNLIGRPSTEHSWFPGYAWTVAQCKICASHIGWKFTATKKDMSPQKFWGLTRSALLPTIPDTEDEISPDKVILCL
T2 sequence (P00533 25-1210 T790M/C797S/L858R): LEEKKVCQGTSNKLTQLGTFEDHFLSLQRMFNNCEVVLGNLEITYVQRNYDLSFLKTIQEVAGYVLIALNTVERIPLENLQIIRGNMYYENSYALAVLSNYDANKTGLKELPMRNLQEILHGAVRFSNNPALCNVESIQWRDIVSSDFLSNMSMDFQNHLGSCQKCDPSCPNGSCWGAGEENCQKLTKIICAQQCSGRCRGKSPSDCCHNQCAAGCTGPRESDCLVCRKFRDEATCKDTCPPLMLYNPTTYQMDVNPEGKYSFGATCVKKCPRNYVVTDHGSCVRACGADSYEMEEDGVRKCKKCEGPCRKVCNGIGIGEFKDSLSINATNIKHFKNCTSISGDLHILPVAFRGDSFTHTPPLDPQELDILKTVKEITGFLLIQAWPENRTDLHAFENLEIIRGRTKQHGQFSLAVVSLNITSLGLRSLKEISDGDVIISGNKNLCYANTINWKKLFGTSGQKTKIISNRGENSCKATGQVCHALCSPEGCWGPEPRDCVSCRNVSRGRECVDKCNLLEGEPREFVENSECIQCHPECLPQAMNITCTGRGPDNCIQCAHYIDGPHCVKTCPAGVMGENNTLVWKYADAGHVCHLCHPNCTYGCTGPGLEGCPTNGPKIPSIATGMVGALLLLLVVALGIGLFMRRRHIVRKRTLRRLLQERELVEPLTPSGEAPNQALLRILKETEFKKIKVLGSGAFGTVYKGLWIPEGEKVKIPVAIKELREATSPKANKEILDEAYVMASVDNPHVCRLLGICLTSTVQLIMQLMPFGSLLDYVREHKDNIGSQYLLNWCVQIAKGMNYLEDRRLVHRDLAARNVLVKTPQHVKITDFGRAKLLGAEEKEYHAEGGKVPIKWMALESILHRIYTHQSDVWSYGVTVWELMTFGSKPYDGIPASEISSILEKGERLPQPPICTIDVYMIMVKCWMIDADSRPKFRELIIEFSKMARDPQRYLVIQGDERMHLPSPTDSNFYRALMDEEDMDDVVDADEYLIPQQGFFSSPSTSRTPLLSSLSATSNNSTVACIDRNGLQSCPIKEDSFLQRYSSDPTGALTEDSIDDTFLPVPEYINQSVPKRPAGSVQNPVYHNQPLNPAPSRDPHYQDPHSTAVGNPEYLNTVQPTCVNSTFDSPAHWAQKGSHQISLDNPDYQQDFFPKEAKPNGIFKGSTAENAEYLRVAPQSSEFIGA

`CS(=O)(=O)N1CCc2cccc(Nc3nc(Nc4ccc(N5CCC(N6CCN(CCC7CCN(c8ccc(C9CCC(=O)NC9=O)c(F)c8)CC7)CC6)CC5)c(F)c4)ncc3Cl)c21` (stereo not drawn) [Example 80, 3-(4-(4-(2-(4-(1-(4-((5-chloro-4-((1-(methylsulfonyl)indolin-7-yl)amino)pyrimidin-2-yl)amino)-2-fluorophenyl)piperidin-4-yl)piperazin-1-yl)ethyl)piperidin-1-yl)-2-fluorophenyl)piperidine-2,6-dione] was tested, and the DC50 [1] was 5.5 nM, the DC50 [2] was 12.2 nM and the DC50 [3] was 4.3 nM. For the same compound, the DC50 [4] was 6.5 nM.
For `CS(=O)(=O)N1CCc2cccc(Nc3nc(Nc4ccc(N5CCC(N6CCN(CCC7CCN(c8ccc(C9CCC(=O)NC9=O)cc8)CC7)CC6)CC5)c(F)c4)ncc3Cl)c21` (stereo not drawn) [Example 79, 3-(4-(4-(2-(4-(1-(4-((5-chloro-4-((1-(methylsulfonyl)indolin-7-yl)amino)pyrimidin-2-yl)amino)-2-fluorophenyl)piperidin-4-yl)piperazin-1-yl)ethyl)piperidin-1-yl)phenyl)piperidine-2,6-dione], the DC50 [1] was 6 nM, the DC50 [2] was 84.6 nM and the DC50 [3] was 5.5 nM. For the same compound, the DC50 [4] was 49.6 nM.
For `COc1cc(N2CCC(N3CCN(CCc4ccc(C5CCC(=O)NC5=O)cc4)CC3)CC2)ccc1Nc1ncc(Cl)c(Nc2cccc3c2N(S(C)(=O)=O)CC3)n1` (stereo not drawn) [Example 34, 3-(4-(2-(4-(1-(4-((5-chloro-4-((1-(methylsulfonyl)indolin-7-yl)amino)pyrimidin-2-yl)amino)-3-methoxyphenyl)piperidin-4-yl)piperazin-1-yl)ethyl)phenyl)piperidine-2,6-dione], the DC50 [1] was 7 nM, the DC50 [2] was 276 nM and the DC50 [3] was 6.7 nM. It also gave a DC50 [4] of 38.2 nM.
`CS(=O)(=O)N1CCc2cccc(Nc3nc(Nc4ccc(N5CCC(N6CCN(C(=O)[C@@H]7CCN(c8ccc9c(c8)C(=O)N(C8CCC(=O)NC8=O)C9=O)C7)CC6)CC5)c(F)c4)nc4[nH]ccc34)c21` (stereo partly drawn) [Example 62, 2-(2,6-dioxopiperidin-3-yl)-5-((R)-3-(4-(1-(2-fluoro-4-((4-((1-(methylsulfonyl)indolin-7-yl)amino)-7H-pyrrolo[2,3-d]pyrimidin-2-yl)amino)phenyl)piperidin-4-yl)piperazine-1-carbonyl)pyrrolidin-1-yl)isoindoline-1,3-dione] showed a DC50 [1] of 4.4 nM, a DC50 [2] of 4.7 nM and a DC50 [3] of 22.1 nM. For the same compound, the DC50 [4] was 3 nM.
With `COc1cc(N2CCN(C3CCN(CCc4ccc(C5CCC(=O)NC5=O)cc4)CC3)CC2)ccc1Nc1ncc(Cl)c(Nc2cccc3c2N(S(C)(=O)=O)CC3)n1` (stereo not drawn) [Example 38, 3-(4-(2-(4-(4-(4-((5-chloro-4-((1-(methylsulfonyl)indolin-7-yl)amino)pyrimidin-2-yl)amino)-3-methoxyphenyl)piperazin-1-yl)piperidin-1-yl)ethyl)phenyl)piperidine-2,6-dione] the DC50 [1] was 9.8 nM, the DC50 [2] was 230 nM and the DC50 [3] was 9.7 nM. It also gave a DC50 [4] of 176 nM.
`CS(=O)(=O)N1CCc2cccc(Nc3nc(Nc4ccc(N5CCC(N6CCN(C(=O)[C@H]7CCN(c8ccc9c(c8)C(=O)N(C8CCC(=O)NC8=O)C9=O)C7)CC6)CC5)c(F)c4)ncc3Cl)c21` (stereo partly drawn) [Example 82, 5-((S)-3-(4-(1-(4-((5-chloro-4-((1-(methylsulfonyl)indolin-7-yl)amino)pyrimidin-2-yl)amino)-2-fluorophenyl)piperidin-4-yl)piperazine-1-carbonyl)pyrrolidin-1-yl)-2-(2,6-dioxopiperidin-3-yl)isoindoline-1,3-dione] was tested, and the DC50 [1] was 3.2 nM, the DC50 [2] was 15.1 nM and the DC50 [3] was 2.8 nM. For the same compound, the DC50 [4] was 3.5 nM.
With `COc1cc(N2CCC(N3CCN(C[C@H]4C[C@H](c5ccc6c(c5)CN(C5CCC(=O)NC5=O)C6=O)C4)CC3)CC2)c(C)cc1Nc1ncc(Br)c(Nc2cccc3c2N(S(C)(=O)=O)CC3)n1` (stereo partly drawn) [Example 159, 3-(5-((1r,3r)-3-((4-(1-(4-((5-bromo-4-((1-(methylsulfonyl)indolin-7-yl)amino)pyrimidin-2-yl)amino)-5-methoxy-2-methylphenyl)piperidin-4-yl)piperazin-1-yl)methyl)cyclobutyl)-1-oxoisoindolin-2-yl)piperidine-2,6-dione] the DC50 [1] was 3 nM, the DC50 [2] was 19 nM and the DC50 [3] was 2 nM. The DC50 [4] was 11 nM.
Work on `COc1cc(N2CCN(CCC3CCN(c4ccc(C5CCC(=O)NC5=O)cc4)CC3)CC2)ccc1Nc1ncc(Cl)c(Nc2cccc3c2N(S(C)(=O)=O)CC3)n1` (stereo not drawn) [Example 56, 3-(4-(4-(2-(4-(4-((5-chloro-4-((1-(methylsulfonyl)indolin-7-yl)amino)pyrimidin-2-yl)amino)-3-methoxyphenyl)piperazin-1-yl)ethyl)piperidin-1-yl)phenyl)piperidine-2,6-dione] yielded a DC50 [1] of 13.5 nM, a DC50 [2] of 233 nM and a DC50 [3] of 5.8 nM. The DC50 [4] was 23.6 nM.
With `COc1cc(N2CCC(N3CCN(CCc4cc(F)c(C5CCC(=O)NC5=O)c(F)c4)CC3)CC2)c(C)cc1Nc1nc(Nc2cccc3c2N(S(C)(=O)=O)CC3)c2cc[nH]c2n1` (stereo not drawn) [Example 163, 3-(2,6-difluoro-4-(2-(4-(1-(5-methoxy-2-methyl-4-((4-((1-(methylsulfonyl)indolin-7-yl)amino)-7H-pyrrolo[2,3-d]pyrimidin-2-yl)amino)phenyl)piperidin-4-yl)piperazin-1-yl)ethyl)phenyl)piperidine-2,6-dione] the DC50 [1] was 3 nM, the DC50 [2] was 40 nM and the DC50 [3] was 20 nM. The DC50 [4] was 49 nM.
